Laboratory results from US7625841B2, “Substituted thiene-3-ylsulphonylamino(thio)carbonyltriazolin(ethi)ones” (Bayer CropScience AG, priority 2001, dated 2009).

Experiments:
Assay type in all cases: in vivo
Avena fatua [1] = experiment: Pre-emergence test/greenhouse; conditions: greenhouse, application rate 15 gai/ha, rated after three weeks, 0%=no effect, 100%=total destruction
Experimental: (§1) • Solvent: 5 parts by weight of acetone • Emulsifier: 1 part by weight of alkylaryl polyglycol ether
(§2) To produce a suitable preparation of active compound, 1 part by weight of active compound is mixed with the stated amount of solvent, the stated amount of emulsifier is added and the concetrate is diluted with water to the desired concentration.
(§3) Seeds of the test plants are sown in normal soil. After 24 hours, the soil is sprayed with the preparation of active compound such that the particular amount of active compound desired is applied per unit area. The concentration of active compound in the spray liquor is chosen such that the particular amount of active compound desired is applied in 1000 litres of water per hectare.
(§4) After three weeks, the degree of damage to the plants is rated in % damage in comparison to the development of the untreated control. The figures denote: • 0%=no effect (like untreated control) • 100%=total destruction

Setaria [2] = experiment: Pre-emergence test/greenhouse; conditions: greenhouse, application rate 15 gai/ha, rated after three weeks, 0%=no effect, 100%=total destruction
Experimental: as §1, §2, §3, §4

Lolium [3] = experiment: Pre-emergence test/greenhouse; conditions: greenhouse, application rate 15 gai/ha, rated after three weeks, 0%=no effect, 100%=total destruction; for pest or weed control at 15 g/ha: Lolium, 504 h, read-out: degree of damage to the plants, Lolium
Experimental: as §1, §2, §3, §4

Bromus [4] = experiment: Pre-emergence test/greenhouse; conditions: greenhouse, application rate 15 gai/ha, rated after three weeks, 0%=no effect, 100%=total destruction
Experimental: as §1, §2, §3, §4

Chenopodium = experiment: Pre-emergence test/greenhouse; conditions: greenhouse, application rate 15 gai/ha, rated after three weeks, 0%=no effect, 100%=total destruction
Experimental: as §1, §2, §3, §4

wheat = experiment: Pre-emergence test/greenhouse; conditions: Triticum aestivum, 504 h, greenhouse, application rate 15 gai/ha, rated after three weeks, 0%=no effect, 100%=total destruction, read-out: degree of damage to the plants, wheat
Experimental: as §1, §2, §3, §4

soybeans = experiment: Pre-emergence test/greenhouse; conditions: greenhouse, application rate 15 gai/ha, rated after three weeks, 0%=no effect, 100%=total destruction
Experimental: as §1, §2, §3, §4

Galium = experiment: Pre-emergence test/greenhouse; conditions: greenhouse, application rate 15 gai/ha, rated after three weeks, 0%=no effect, 100%=total destruction
Experimental: as §1, §2, §3, §4

Matricaria = experiment: Pre-emergence test/greenhouse; conditions: greenhouse, application rate 15 gai/ha, rated after three weeks, 0%=no effect, 100%=total destruction; for pest or weed control at 15 g/ha: Matricaria, 504 h, read-out: degree of damage to the plants, Matricaria
Experimental: as §1, §2, §3, §4

maize = experiment: Pre-emergence test/greenhouse; conditions: Zea mays, 504 h, greenhouse, application rate 15 gai/ha, rated after three weeks, 0%=no effect, 100%=total destruction, read-out: degree of damage to the plants, maize
Experimental: as §1, §2, §3, §4

Alopecurus = experiment: Pre-emergence test/greenhouse; conditions: greenhouse, application rate 15 gai/ha, rated after three weeks, 0%=no effect, 100%=total destruction
Experimental: as §1, §2, §3, §4

Xanthium [5] = experiment: Pre-emergence test/greenhouse; conditions: Xanthium, 504 h, greenhouse, application rate 15 gai/ha, rated after three weeks, 0%=no effect, 100%=total destruction, read-out: degree of damage to the plants, Xanthium
Experimental: as §1, §2, §3, §4

Amaranthus = experiment: Pre-emergence test/greenhouse; conditions: greenhouse, application rate 15 gai/ha, rated after three weeks, 0%=no effect, 100%=total destruction
Experimental: as §1, §2, §3, §4

Stellaria = experiment: Pre-emergence test/greenhouse; conditions: greenhouse, application rate 15 gai/ha, rated after three weeks, 0%=no effect, 100%=total destruction; for pest or weed control at 15 g/ha: Stellaria, 504 h, read-out: degree of damage to the plants, Stellaria
Experimental: as §1, §2, §3, §4

Polygonum = experiment: Pre-emergence test/greenhouse; conditions: greenhouse, application rate 15 gai/ha, rated after three weeks, 0%=no effect, 100%=total destruction
Experimental: as §1, §2, §3, §4

Digitaria [6] = experiment: Pre-emergence test/greenhouse; conditions: greenhouse, application rate 15 gai/ha, rated after three weeks, 0%=no effect, 100%=total destruction
Experimental: as §1, §2, §3, §4

Solanum = experiment: Pre-emergence test/greenhouse; conditions: greenhouse, application rate 15 gai/ha, rated after three weeks, 0%=no effect, 100%=total destruction
Experimental: as §1, §2, §3, §4

weeds [7] = experiment: Pre-emergence test, summary for weeds
Experimental: as §1, §2, §3, §4

Avena fatua [8] = experiment: Post-emergence test/greenhouse; conditions: greenhouse, application rate 15 gai/ha, rated after three weeks, 0%=no effect, 100%=total destruction
Experimental: as §1
(§5) To produce a suitable preparation of active compound, 1 part by weight of active compound is mixed with the stated amount of solvent, the stated amount of emulsifier is added and the concentrate is diluted with water to the desired concentration.
(§6) Test plants of a height of 5-15 cm are sprayed with the preparation of active compound such that the particular amounts of active compound desired are applied per unit area. The concentration of the spray liquor is chosen such that the particular amounts of active compound desired are applied in 1000 l of water/ha.
(§7) After three weeks, the degree of damage to the plants is rated in % damage in comparison to the development of the untreated control.
(§8) The figures denote: • 0%=no effect (like untreated control) • 100%=total destruction

Setaria [9] = experiment: Post-emergence test/greenhouse; conditions: greenhouse, application rate 15 gai/ha, rated after three weeks, 0%=no effect, 100%=total destruction
Experimental: as §1, §5, §6, §7, §8

Lolium [10] = experiment: Post-emergence test/greenhouse; conditions: greenhouse, application rate 15 gai/ha, rated after three weeks, 0%=no effect, 100%=total destruction
Experimental: as §1, §5, §6, §7, §8

Bromus [11] = experiment: Post-emergence test/greenhouse; conditions: greenhouse, application rate 15 gai/ha, rated after three weeks, 0%=no effect, 100%=total destruction
Experimental: as §1, §5, §6, §7, §8

Xanthium [12] = experiment: Post-emergence test/greenhouse; conditions: greenhouse, application rate 15 gai/ha, rated after three weeks, 0%=no effect, 100%=total destruction
Experimental: as §1, §5, §6, §7, §8

Echinochloa = experiment: Post-emergence test/greenhouse; conditions: greenhouse, application rate 15 gai/ha, rated after three weeks, 0%=no effect, 100%=total destruction
Experimental: as §1, §5, §6, §7, §8

Viola = experiment: Post-emergence test/greenhouse; conditions: greenhouse, application rate 15 gai/ha, rated after three weeks, 0%=no effect, 100%=total destruction
Experimental: as §1, §5, §6, §7, §8

Digitaria [13] = experiment: Post-emergence test/greenhouse; conditions: greenhouse, application rate 15 gai/ha, rated after three weeks, 0%=no effect, 100%=total destruction
Experimental: as §1, §5, §6, §7, §8

weeds [14] = experiment: Post-emergence test, summary for weeds
Experimental: as §1, §5, §6, §7, §8

[15] = test system: crop plants such as, for example, maize, oilseed rape and wheat; experiment: Post-emergence test, summary for crop plants
Experimental: as §1, §5, §6, §7, §8

[16] = test system: crop plants, such as, for example, maize, soyabean and wheat; experiment: Pre-emergence test, summary for crop plants
Experimental: as §1, §2, §3, §4

Structure (SMILES) | degree of damage to the plants, Avena fatua (Avena fatua [1]) | degree of damage to the plants, Setaria (Setaria [2]) | pest or weed control at 15 g/ha (Lolium [3]) | degree of damage to the plants, Bromus (Bromus [4]) | degree of damage to the plants, Chenopodium (Chenopodium) | plant injury at 15 g/ha (wheat) | degree of damage to the plants, soybeans (soybeans) | degree of damage to the plants, Galium (Galium) | pest or weed control at 15 g/ha (Matricaria) | plant injury at 15 g/ha (maize) | degree of damage to the plants, Alopecurus (Alopecurus) | pest or weed control at 15 g/ha (Xanthium [5]) | degree of damage to the plants, Amaranthus (Amaranthus) | pest or weed control at 15 g/ha (Stellaria) | degree of damage to the plants, Polygonum (Polygonum) | degree of damage to the plants, Digitaria (Digitaria [6]) | degree of damage to the plants, Solanum (Solanum) | activity against weeds compared with the known compounds (A) to (G) (weeds [7]) | degree of damage to the plants, Avena fatua (Avena fatua [8]) | degree of damage to the plants, Setaria (Setaria [9]) | further results
COC(=O)c1csc(C)c1S(=O)(=O)NC(=O)n1nc(OC(C)C)n(C2CC2)c1=O [(C), methyl 4-[[[(4-cyclopropyl-4,5-dihydro-5-oxo-3-isopropoxy-1H-1,2,4-triazol-1-yl)-carbonyl]amino]sulfonyl]-5-methyl-3-thiophenecarboxylate, reference compound] | 50% | 50% | 50% | 70% | 40% | 0% | 0% | 70% | 80% | 0% | 0% | 0% | 80% | 80% | 60% | 20% | – | – | – | – | –
COC(=O)c1csc(C)c1S(=O)(=O)NC(=O)n1nc(C2CC2)n(C2CC2)c1=O [(D), methyl 4-[[[(3,4-dicyclopropyl-4,5-dihydro-5-oxo-1H-1,2,4-triazol-1-yl)carbonyl]-amino]sulfonyl]-5-methyl-3-thiophenecarboxylate, reference compound] | 70% | 10% | 20% | 10% | 0% | 0% | 0% | 0% | 10% | 20% | 0% | 0% | 80% | 60% | 10% | 20% | 80% | – | – | – | –
COC(=O)c1csc(C)c1S(=O)(=O)NC(=O)n1nc(C)n(C)c1=O [(E), methyl 4-[[[(4,5-dihydro-3,4-dimethyl-5-oxo-1H-1,2,4-triazol-1-yl)carbonyl]-amino]sulfonyl]-5-methyl-3-thiophenecarboxylate, reference compound] | 0% | 20% | 0% | 20% | 0% | 0% | 0% | 0% | 20% | 0% | 20% | 0% | 10% | 40% | 20% | 0% | 70% | – | – | – | –
CCc1nn(C(=O)NS(=O)(=O)c2c(C(=O)OC)csc2C)c(=O)n1C [(F), methyl 4-[[[(4,5-dihydro-3-ethyl-4-methyl-5-oxo-1H-1,2,4-triazol-1-yl)carbonyl]-amino]sulfonyl]-5-methyl-3-thiophenecarboxylate, reference compound] | 60% | 30% | 40% | 70% | 0% | 0% | 10% | 10% | 20% | 0% | 70% | 0% | 40% | 70% | 50% | 60% | 80% | – | – | – | –
CCc1nn(C(=O)NS(=O)(=O)c2c(C(=O)OC)csc2C)c(=O)n1C1CC1 [Example 47] | 95% | 95% | – | – | – | – | – | – | – | – | – | – | 100% | – | 90% | – | – | considerably stronger activity against weeds | 95% | 90% | degree of damage to the plants, Lolium (Lolium [10]): 100%; degree of damage to the plants, Bromus (Bromus [11]): 80%; degree of damage to the plants, Xanthium (Xanthium [12]): 80%; degree of damage to the plants, Echinochloa (Echinochloa): 95%; degree of damage to the plants, Viola (Viola): 100%; degree of damage to the plants, Digitaria (Digitaria [13]): 90%; activity against weeds compared with the known compounds (A) and (B) (weeds [14]): considerably stronger activity against weeds; compatibility with crop plants compared with the known compounds (A) and (B) [15]: substantially better compatibility with crop plants; tolerance by crop plants [16]: tolerated well by crop plants; degree of damage to the plants, Lolium (Lolium [3]): 80%; degree of damage to the plants, Matricaria (Matricaria): 100%; degree of damage to the plants, Stellaria (Stellaria): 100%
CCCc1nn(C(=O)NS(=O)(=O)c2c(C(=O)OC)csc2C)c(=O)n1C1CC1 [Example 48] | 95% | – | – | – | – | – | – | – | – | – | – | – | 100% | – | 95% | – | – | considerably stronger activity against weeds | 90% | 80% | degree of damage to the plants, Lolium (Lolium [10]): 100%; degree of damage to the plants, Xanthium (Xanthium [12]): 90%; degree of damage to the plants, Echinochloa (Echinochloa): 95%; degree of damage to the plants, Viola (Viola): 95%; degree of damage to the plants, Digitaria (Digitaria [13]): 90%; activity against weeds compared with the known compounds (A) and (B) (weeds [14]): considerably stronger activity against weeds; compatibility with crop plants compared with the known compounds (A) and (B) [15]: substantially better compatibility with crop plants; tolerance by crop plants [16]: tolerated well by crop plants; degree of damage to the plants, Lolium (Lolium [3]): 95%; degree of damage to the plants, Matricaria (Matricaria): 95%; degree of damage to the plants, Stellaria (Stellaria): 100%
